Target: T1, TNKS1 (Homo sapiens, UniProt O95271)
T1 sequence (O95271 1-1327): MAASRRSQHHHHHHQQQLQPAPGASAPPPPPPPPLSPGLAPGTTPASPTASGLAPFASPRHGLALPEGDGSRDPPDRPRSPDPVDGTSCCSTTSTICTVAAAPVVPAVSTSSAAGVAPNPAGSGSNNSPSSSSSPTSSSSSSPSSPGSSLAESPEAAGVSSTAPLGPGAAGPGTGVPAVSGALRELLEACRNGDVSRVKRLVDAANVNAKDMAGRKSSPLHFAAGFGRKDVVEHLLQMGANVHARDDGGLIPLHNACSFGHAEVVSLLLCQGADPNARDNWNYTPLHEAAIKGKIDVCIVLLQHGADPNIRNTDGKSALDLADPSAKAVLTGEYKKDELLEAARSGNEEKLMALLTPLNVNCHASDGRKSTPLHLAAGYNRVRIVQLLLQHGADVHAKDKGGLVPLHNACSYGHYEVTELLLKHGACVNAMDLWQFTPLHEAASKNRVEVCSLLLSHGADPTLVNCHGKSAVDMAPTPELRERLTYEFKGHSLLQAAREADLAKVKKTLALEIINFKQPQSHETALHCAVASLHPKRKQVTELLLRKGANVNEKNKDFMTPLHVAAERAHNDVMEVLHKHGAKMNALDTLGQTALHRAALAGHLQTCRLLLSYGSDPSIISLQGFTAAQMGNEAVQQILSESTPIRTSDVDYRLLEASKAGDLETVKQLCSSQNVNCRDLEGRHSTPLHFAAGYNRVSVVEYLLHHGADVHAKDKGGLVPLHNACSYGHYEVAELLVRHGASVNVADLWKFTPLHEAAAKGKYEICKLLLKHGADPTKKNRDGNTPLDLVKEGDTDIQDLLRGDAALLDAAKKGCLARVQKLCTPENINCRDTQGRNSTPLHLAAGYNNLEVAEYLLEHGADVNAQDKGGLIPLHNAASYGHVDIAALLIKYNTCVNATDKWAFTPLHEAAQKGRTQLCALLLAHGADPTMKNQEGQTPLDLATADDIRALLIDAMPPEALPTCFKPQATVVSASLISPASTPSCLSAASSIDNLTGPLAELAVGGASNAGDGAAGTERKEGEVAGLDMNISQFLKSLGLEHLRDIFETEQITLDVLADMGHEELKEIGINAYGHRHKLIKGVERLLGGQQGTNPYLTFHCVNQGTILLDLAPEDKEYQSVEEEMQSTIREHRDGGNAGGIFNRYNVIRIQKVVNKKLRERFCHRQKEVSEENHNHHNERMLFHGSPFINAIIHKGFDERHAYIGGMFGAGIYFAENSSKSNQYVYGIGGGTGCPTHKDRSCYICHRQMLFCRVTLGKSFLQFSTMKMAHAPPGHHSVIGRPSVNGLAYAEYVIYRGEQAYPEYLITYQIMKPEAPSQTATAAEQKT
Assay: Modified TNKS1 Assay 2 (auto-parsylation, [3H]-NAD+ SPA)
Type: biochemical
Conditions: 6 nM TNKS1, 96 well
Method: The potency of selected compounds according to the invention was assessed applying an modified in vitro inhibition assay. Here, the TNKS1 catalyzed NAD^+-dependent ribosylation of the enzyme itself (auto-parsylation) was detected using [^3H]-NAD^+ as substrate and applying the scintillation proximity assay (SPA) method to detect tritium-labeled, parsylated TNKS1. The intensity of the readout signal is proportional to the incorporated [^3H]-NAD^+. Inhibition of TNKS1 leads to a decreased incorporation of [^3H]-NAD^+ and consequently to a lower readout signal intensity. The concentration of a test compound which inhibits the enzyme activity by 50% (corresponds to half of the normed readout signal intensity) is reported as IC50.
The assay was conducted in a 96 well MTP format with the identical TNKS1 enzyme sample and NAD^+ sample as in the histone ribosylation assay with the following modifications: TNKS1 enzyme sample was diluted with a modified assay buffer (50 mM MES pH 7.0, 1 mM DTT, 0.01% Triton X-100) to a final concentration of 6 nM TNKS1 and 10×NAD^+ solution was diluted with the modified assay buffer (s. above) to a final 0.445×NAD^+ solution doped with 100 Bq/ul [^3H]-NAD^+[Catalog #NET443H050UC, Perkin Elmer, Waltham, Mass., USA]. Substrate solution (10 ul) was incubated with different test compound concentrations (2.5 ul in 10% DMSO in modified assay buffer) or control (2.5 ul 10% DMSO in modified assay buffer only) and enzyme (10 ul) over night at room temperature. Incorporated tritium was measured after addition of 50 ul SPA beads (1 mg/ml) [Catalog #RPNQ0095 20 mg/ml, Perkin Elmer, Waltham, Mass., USA; diluted 1:10 with Dulbecco's phosphate buffered saline, PBS Catalog #D8537, Sigma-Aldrich, Steinheim, Germany] and detection of the photon emission with a beta count plate reader [Wallac MicroBeta®, Perkin Elmer, Waltham, Mass., USA].

SMILES | IC50 [µM]
CNC(=O)c1nc[nH]c1C(=O)Nc1ccc(NC(=O)c2ccc(OC(F)(F)F)cc2F)cc1 [Example 253, N^5-(4-{[2-fluoro-4-(trifluoromethoxy)benzoyl]amino}phenyl)-N^4-methyl-1H-imidazole-4,5-dicarboxamide] | > 10
CNC(=O)c1nc[nH]c1C(=O)Nc1ccc(NC(=O)c2ncccc2Cl)cc1 [Example 247, N^5-(4-{[(3-chloropyridin-2-yl)carbonyl]amino}phenyl)-N^4-methyl-1H-imidazole-4,5-dicarboxamide] | 0.91
CN(C)C(=O)c1nc[nH]c1C(=O)Nc1ccc(NC(=O)c2ccc(F)cc2Cl)cc1 [Example 24, N^5-{4-[(2-chloro-4-fluorobenzoyl)amino]phenyl}-N^4,N^4-dimethyl-1H-imidazole-4,5-dicarboxamide] | 2.6
CNC(=O)c1nc[nH]c1C(=O)Nc1ccc(NC(=O)c2ccc(OC(F)F)cc2F)cc1 [Example 251, N^5-(4-{[4-(difluoromethoxy)-2-fluorobenzoyl]amino}phenyl)-N^4-methyl-1H-imidazole-4,5-dicarboxamide] | > 10
O=C(Nc1ccc(NC(=O)c2nc[nH]c2C(=O)NCCCN2CCOCC2)cc1)c1ccccc1Cl [Example 200, N^4-{4-[(2-chlorobenzoyl)amino]phenyl}-N^5-[3-(morpholin-4-yl)propyl]-1H-imidazole-4,5-dicarboxamide] | 0.35
CNC(=O)c1nc[nH]c1C(=O)Nc1ccc(NC(=O)c2cnccc2Cl)cc1 [Example 254, N^5-(4-{[(4-chloropyridin-3-yl)carbonyl]amino}phenyl)-N^4-methyl-1H-imidazole-4,5-dicarboxamide] | 0.57
CNC(=O)c1nc[nH]c1C(=O)Nc1ccc(NC(=O)c2ccc(F)cc2)cc1 [Example 20, N^5-{4-[(4-fluorobenzoyl)amino]phenyl}-N^4-methyl-1H-imidazole-4,5-dicarboxamide] | > 10
CNC(=O)c1nc[nH]c1C(=O)Nc1ccc(NC(=O)c2ccccc2C(F)F)cc1 [Example 241, N^5-(4-{[2-(difluoromethyl)benzoyl]amino}phenyl)-N^4-methyl-1H-imidazole-4,5-dicarboxamide] | 2.5
CNC(=O)c1nc[nH]c1C(=O)Nc1ccc(NC(=O)c2c(Cl)cccc2Cl)cc1 [Example 26, N^5-{4-[(2,6-dichlorobenzoyl)amino]phenyl}-N^4-methyl-1H-imidazole-4,5-dicarboxamide] | 1.7
CCS(=N)(=O)c1ccc(C(=O)Nc2ccc(NC(=O)c3[nH]cnc3C(=O)NC)cc2)c(Cl)c1 (stereo not shown) [Example 255, N^5-(4-{[2-chloro-4-(S-ethylsulfonimidoyl)benzoyl]amino}phenyl)-N^4-methyl-1H-imidazole-4,5-dicarboxamide] | 0.68
CNC(=O)c1nc[nH]c1C(=O)Nc1ccc(NC(=O)c2ccccc2OC(F)(F)F)cc1 [Example 243, N^4-methyl-N^5-(4-{[2-(trifluoromethoxy)benzoyl]amino}phenyl)-1H-imidazole-4,5-dicarboxamide] | > 10

Stronger by IC50, values ahead:

IC50 [µM] | SMILES
0.24 | CNC(=O)c1nc[nH]c1C(=O)Nc1ccc(NC(=O)c2cc(OC)ccc2Cl)cc1 [Example 248, N^5-{4-[(2-chloro-5-methoxybenzoyl)amino]phenyl}-N^4-methyl-1H-imidazole-4,5-dicarboxamide]
0.24 | O=C(Nc1ccc(NC(=O)c2nc[nH]c2C(=O)NCCF)cc1)c1ccccc1Cl [Example 166, N^4-{4-[(2-chlorobenzoyl)amino]phenyl}-N^5-(2-fluoroethyl)-1H-imidazole-4,5-dicarboxamide]
0.15 | CNC(=O)c1ncoc1C(=O)Nc1ccc(NC(=O)c2ccc(F)cc2Cl)cc1 [Example 11, N^5-{4-[(2-chloro-4-fluorobenzoyl)amino]phenyl}-N^4-methyl-1,3-oxazole-4,5-dicarboxamide]
0.11 | CC(C)(CN1CCOCC1)NC(=O)c1[nH]cnc1C(=O)Nc1ccc(NC(=O)c2ccc(F)cc2Cl)cc1 [Example 207, N^4-{4-[(2-chloro-4-fluorobenzoyl)amino]phenyl}-N^5-[2-methyl-1-(morpholin-4-yl)propan-2-yl]-1H-imidazole-4,5-dicarboxamide]
0.08 | CNC(=O)c1nc[nH]c1C(=O)Nc1ccc(NC(=O)c2c(F)cc(F)cc2Cl)cc1 [Example 118, N^5-{4-[(2-chloro-4,6-difluorobenzoyl)amino]phenyl}-N^4-methyl-1H-imidazole-4,5-dicarboxamide]
0.08 | CNC(=O)c1nc[nH]c1C(=O)Nc1ccc(NC(=O)c2ccc(OCCN(C)C)cc2Cl)cc1 [Example 25, N^5-[4-({2-chloro-4-[2-(dimethylamino)ethoxy]benzoyl}amino)phenyl]-N^4-methyl-1H-imidazole-4,5-dicarboxamide]
0.05 | CN1CCN(C(C)(C)CNC(=O)c2[nH]cnc2C(=O)Nc2ccc(NC(=O)c3ccc(F)cc3Cl)cc2)CC1 [Example 187, N^4-{4-[(2-chloro-4-fluorobenzoyl)amino]phenyl}-N^5-[2-methyl-2-(4-methylpiperazin-1-yl)propyl]-1H-imidazole-4,5-dicarboxamide]
0.05 | O=C(Nc1ccc(NC(=O)c2[nH]cnc2C(=O)NCC(F)(F)F)cc1)c1ccc(F)cc1Cl [Example 30, N^4-{4-[(2-chloro-4-fluorobenzoyl)amino]phenyl}-N^5-(2,2,2-trifluoroethyl)-1H-imidazole-4,5-dicarboxamide]
0.03 | O=C(Nc1ccc(NC(=O)c2nc[nH]c2C(=O)NC2CCOC2)cc1)c1ccc(F)cc1Cl (stereo not shown) [Example 236, N^4-{4-[(2-chloro-4-fluorobenzoyl)amino]phenyl}-N^5-(tetrahydrofuran-3-yl)-1H-imidazole-4,5-dicarboxamide]
0.03 | CC(C)(CN1CCCCC1)NC(=O)c1[nH]cnc1C(=O)Nc1ccc(NC(=O)c2ccc(F)cc2Cl)cc1 [Example 184, N^4-{4-[(2-chloro-4-fluorobenzoyl)amino]phenyl}-N^5-[2-methyl-1-(piperidin-1-yl)propan-2-yl]-1H-imidazole-4,5-dicarboxamide]
0.01 | CC1CCN(CCNC(=O)c2nc[nH]c2C(=O)Nc2ccc(NC(=O)c3ccc(F)cc3Cl)cc2)CC1 [Example 126, N^5-{4-[(2-chloro-4-fluorobenzoyl)amino]phenyl}-N^4-[2-(4-methylpiperidin-1-yl)ethyl]-1H-imidazole-4,5-dicarboxamide]

Source: patent US9884063B2, “Amido-substituted azole compounds” (Bayer Pharma Aktiengesellschaft, priority 2014, dated 2018)
